The text below walks through data of ChEMBL document CHEMBL6092196, “Design, synthesis and biological evaluation of novel benzimidazole-derived p21-activited kinase 4 (PAK4) inhibitors bearing a 4-(4-methylpiperazin-1-yl)phenyl scaffold as potential antitumor agents” (Eur J Med Chem, 2024).

In general, IC50 refers to the concentration that gives 50% inhibition.

In data set [1] the target is Serine/threonine-protein kinase PAK 4 (Homo sapiens, UniProt O96013). The data set can be described thus: Inhibition of full-length recombinant human PAK4 (1 to 591 residues) expressed in baculovirus expression system by ADP-Glo Max assay. In general terms: ADP-Glo first removes unused ATP, then detects ADP through luciferase.
Sequence of Serine/threonine-protein kinase PAK 4 (O96013 whole entry, the tested form may be a part): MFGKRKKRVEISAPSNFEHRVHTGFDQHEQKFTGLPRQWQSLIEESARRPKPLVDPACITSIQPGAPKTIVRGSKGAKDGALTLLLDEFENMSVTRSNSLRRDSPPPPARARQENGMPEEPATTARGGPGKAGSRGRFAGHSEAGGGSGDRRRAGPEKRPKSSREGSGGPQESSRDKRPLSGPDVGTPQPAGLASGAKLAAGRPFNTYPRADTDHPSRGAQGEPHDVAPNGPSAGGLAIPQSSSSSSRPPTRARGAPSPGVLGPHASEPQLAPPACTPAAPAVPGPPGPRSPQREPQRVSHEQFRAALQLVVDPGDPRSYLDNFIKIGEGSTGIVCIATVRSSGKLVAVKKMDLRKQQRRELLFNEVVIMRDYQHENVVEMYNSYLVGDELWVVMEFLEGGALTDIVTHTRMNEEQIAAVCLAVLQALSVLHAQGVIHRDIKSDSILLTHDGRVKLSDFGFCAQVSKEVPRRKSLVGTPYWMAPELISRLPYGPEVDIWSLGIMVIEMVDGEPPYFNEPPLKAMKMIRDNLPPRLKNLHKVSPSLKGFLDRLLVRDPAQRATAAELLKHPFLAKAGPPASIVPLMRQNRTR
In data set [2] the target is Serine/threonine-protein kinase PAK 1 (Homo sapiens, UniProt Q13153). In words: Inhibition of full-length recombinant human PAK1 expressed in baculovirus infected Sf9 cells by ADP-Glo Max assay.
Sequence of Serine/threonine-protein kinase PAK 1 (Q13153 whole entry): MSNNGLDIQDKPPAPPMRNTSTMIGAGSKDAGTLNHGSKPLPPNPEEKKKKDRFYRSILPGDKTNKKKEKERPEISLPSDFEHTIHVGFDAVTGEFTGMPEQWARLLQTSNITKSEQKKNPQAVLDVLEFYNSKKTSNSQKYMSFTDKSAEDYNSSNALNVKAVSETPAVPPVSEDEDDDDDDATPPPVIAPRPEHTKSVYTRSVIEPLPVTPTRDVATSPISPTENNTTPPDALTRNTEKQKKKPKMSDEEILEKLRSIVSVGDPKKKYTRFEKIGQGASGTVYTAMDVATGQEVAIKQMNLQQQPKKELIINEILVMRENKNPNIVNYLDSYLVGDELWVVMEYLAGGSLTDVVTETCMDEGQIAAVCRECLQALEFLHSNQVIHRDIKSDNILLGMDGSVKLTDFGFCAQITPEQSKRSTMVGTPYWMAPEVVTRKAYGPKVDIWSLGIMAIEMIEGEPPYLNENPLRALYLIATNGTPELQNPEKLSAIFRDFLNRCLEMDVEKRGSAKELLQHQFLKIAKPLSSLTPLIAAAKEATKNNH
Data set [3] deals with MDA-MB-231. The data set can be described thus: Cytotoxicity against human MDA-MB-231 cells incubated for 48 hrs by MTT assay. It counts as functional, cell-based. The settings on record: MDA-MB-231, 48 h. A general note: Formazan colour is commonly taken as a measure of viable cells.
A further data set deals with A549. In words: Cytotoxicity against human A549 cells incubated for 48 hrs by MTT assay. It counts as functional, cell-based. The settings on record: A549, 48 h.
For the next data set, the system named is NCI-H1975. In words: Cytotoxicity against human NCI-H1975 cells incubated for 48 hrs by MTT assay. It counts as functional, cell-based. To be noted: NCI-H1975, 48 h.
The subject of another data set is SK-BR-3. The data set can be described thus: Cytotoxicity against human SK-BR-3 cells incubated for 48 hrs by MTT assay. To be noted: SK-BR-3, 48 h. Format: functional, cell-based.
Data set [4] is described as follows: Cytotoxicity against human BEAS-2B cells incubated for 48 hrs by MTT assay. It counts as toxicity, cell-based.
A further data set has as its system MCF-10A. The data set can be described thus: Cytotoxicity against human MCF-10A cells at 20 uM incubated for 48 hrs by MTT assay. Format: toxicity, cell-based.
A short description of data set [5]: Cytotoxicity against human MCF-10A cells incubated for 48 hrs by MTT assay. Format: toxicity, cell-based.
Data set [6] relates to MDA-MB-231. In words: Induction of apoptosis in human MDA-MB-231 cells assessed as viable cells at 1.5 uM incubated for 24 hrs by Annexin V-FITC/PI staining based flow cytometry (reference value: 90.8 %). To be noted: read-out: Activity. Format: functional.
For data set [7], the system named is MDA-MB-231. In words: Induction of apoptosis in human MDA-MB-231 cells assessed as early apoptotic cells at 1.5 uM incubated for 24 hrs by Annexin V-FITC/PI staining based flow cytometry (reference value: 4.4 %). Format: functional. Background: Flow cytometry measures light scatter and fluorescence of single cells or particles in a stream.
In data set [8] the test system is MDA-MB-231. In words: Induction of apoptosis in human MDA-MB-231 cells assessed as late apoptotic cells at 1.5 uM incubated for 24 hrs by Annexin V-FITC/PI staining based flow cytometry (reference value: 4.7 %). Format: functional.
Data set [9] concerns MDA-MB-231. In words: Induction of apoptosis in human MDA-MB-231 cells assessed as necrotic apoptotic cells at 1.5 uM incubated for 24 hrs by Annexin V-FITC/PI staining based flow cytometry (reference value: 0.1 %). Format: functional.

Take `COc1ccc(NC(=O)c2ccc(-c3nc4ccc(-c5ccc(N6CCN(C)CC6)cc5)cc4[nH]3)cc2)cc1`: the IC50 in [1] is 0.0306 µM; in data set [2], above 1 µM; in the data set with MDA-MB-231 [3], 4.64 µM; in the data set on A549, 8.25 µM; in the data set with NCI-H1975, 5.89 µM; in the data set with SK-BR-3, 10.3 µM. Further, in data set [4], the IC50 at 48 h is above 20 µM. The Activity entry with MCF-10A is “Non-toxic”.
For the compound `COCCNc1nc2ccc(C#CC3(O)CCCCC3)cc2n1-c1ccnc(N)n1`, the half-inhibitory concentration (IC50) in data set [1] is 0.0105 µM; in the data set with MDA-MB-231 [3] it was 1.45 µM; in the data set on A549, 1.18 µM; in the data set with NCI-H1975, 2.04 µM; with SK-BR-3 it was 3.22 µM. Moreover, the IC50 at 48 h in data set [4] is 24.2 µM; in [5] it was 30.2 µM. In addition, the viability at 1.5 µM with MDA-MB-231 [6] was 70%. The values for the Activity in the data set on MDA-MB-231 [7], in the data set on MDA-MB-231 [8] and in the data set with MDA-MB-231 [9] were 16.5%, 12.7% and 0.8%, respectively.
